Experimental data from PubChem BioAssay (NCI).
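Growth conditions: 96-well plates. Treatment: test compound, 48 hours, 5 concentrations. Analysis: linear interpolation between bracketing concentrations; unreached endpoints set to highest concentration. At the GI50, growth is halved. TGI: total growth inhibition.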

Experiments:
Assay in all cases: growth of human tumour cells (NCI), 48 h
NCI-H226 lung = system: NCI-H226 lung
NCI-H23 lung = system: NCI-H23 lung
NCI-H460 lung = system: NCI-H460 lung
NCI-H522 lung = system: NCI-H522 lung
NCI/ADR-RES ovarian = system: NCI/ADR-RES ovarian
OVCAR-3 ovarian = system: OVCAR-3 ovarian
OVCAR-4 ovarian = system: OVCAR-4 ovarian
OVCAR-5 ovarian = system: OVCAR-5 ovarian
OVCAR-8 ovarian = system: OVCAR-8 ovarian
PC-3 prostate = system: PC-3 prostate
RPMI-8226 leukemia = system: RPMI-8226 leukemia
SF-268 CNS = system: SF-268 CNS
SF-295 CNS = system: SF-295 CNS
SF-539 CNS = system: SF-539 CNS
SK-MEL-2 melanoma = system: SK-MEL-2 melanoma
SK-MEL-28 melanoma = system: SK-MEL-28 melanoma
SK-MEL-5 melanoma = system: SK-MEL-5 melanoma
SK-OV-3 ovarian = system: SK-OV-3 ovarian
SN12C renal = system: SN12C renal
SNB-19 CNS = system: SNB-19 CNS
SNB-75 CNS = system: SNB-75 CNS
SR leukemia = system: SR leukemia
SW-620 colon = system: SW-620 colon
T-47D breast = system: T-47D breast
TK-10 renal = system: TK-10 renal
U251 CNS = system: U251 CNS
UACC-257 melanoma = system: UACC-257 melanoma
UACC-62 melanoma = system: UACC-62 melanoma
UO-31 renal = system: UO-31 renal

In the case of `CN1CCN(c2ccc(Nc3nc(NCCCNS(=O)(=O)c4ccc(F)cc4)c4sccc4n3)cc2)CC1`, the TGI (NCI-H226 lung) was 23.1 µM, the GI50 (NCI-H23 lung) was 14.8 µM and the TGI (NCI-H23 lung) was 30.3 µM. For the same compound, the GI50 (NCI-H460 lung) was 14.5 µM, the TGI (NCI-H460 lung) was 29.2 µM and the GI50 (NCI-H522 lung) was 13.3 µM. The TGI (NCI-H522 lung) was 27.5 µM, the GI50 (NCI/ADR-RES ovarian) was 18.9 µM and the TGI (NCI/ADR-RES ovarian) was 55.2 µM. The GI50 (OVCAR-3 ovarian) was 17.8 µM, the TGI (OVCAR-3 ovarian) was 55.7 µM and the GI50 (OVCAR-4 ovarian) was 10.2 µM. It also gave a TGI (OVCAR-4 ovarian) of 38.8 µM, a GI50 (OVCAR-5 ovarian) of 18.1 µM and a TGI (OVCAR-5 ovarian) of 55.9 µM. It also gave a GI50 (OVCAR-8 ovarian) of 14.9 µM, a TGI (OVCAR-8 ovarian) of 42.8 µM and a GI50 (PC-3 prostate) of 13.4 µM. It also gave a TGI (PC-3 prostate) of 46.1 µM, a GI50 (RPMI-8226 leukemia) of 5.24 µM and a TGI (RPMI-8226 leukemia) of 37.6 µM. The GI50 (SF-268 CNS) was 12.8 µM, the TGI (SF-268 CNS) was 63.4 µM and the GI50 (SF-295 CNS) was 13.3 µM. The TGI (SF-295 CNS) was 26.6 µM, the GI50 (SF-539 CNS) was 12 µM and the TGI (SF-539 CNS) was 24.4 µM. The GI50 (SK-MEL-2 melanoma) was 15.5 µM, the TGI (SK-MEL-2 melanoma) was 29.7 µM and the GI50 (SK-MEL-28 melanoma) was 13.1 µM. It also gave a TGI (SK-MEL-28 melanoma) of 25.8 µM, a GI50 (SK-MEL-5 melanoma) of 15.8 µM and a TGI (SK-MEL-5 melanoma) of 29.2 µM. For the same compound, the GI50 (SK-OV-3 ovarian) was 27 µM, the TGI (SK-OV-3 ovarian) was 78.4 µM and the GI50 (SN12C renal) was 13.6 µM. The TGI (SN12C renal) was 37.2 µM, the GI50 (SNB-19 CNS) was 23 µM and the TGI (SNB-19 CNS) was 61.1 µM. It also gave a GI50 (SNB-75 CNS) of 0.271 µM, a TGI (SNB-75 CNS) of 20.3 µM and a GI50 (SR leukemia) of 2.83 µM. It also gave a TGI (SR leukemia) of over 100 µM, a GI50 (SW-620 colon) of 15.2 µM and a TGI (SW-620 colon) of 30.1 µM. The GI50 (T-47D breast) was 15 µM, the TGI (T-47D breast) was 40.4 µM and the GI50 (TK-10 renal) was 24.6 µM. For the same compound, the TGI (TK-10 renal) was 61.5 µM, the GI50 (U251 CNS) was 5.65 µM and the TGI (U251 CNS) was 28.6 µM. It also gave a GI50 (UACC-257 melanoma) of 15.1 µM, a TGI (UACC-257 melanoma) of 30.3 µM and a GI50 (UACC-62 melanoma) of 12.5 µM. The TGI (UACC-62 melanoma) was 25.2 µM, the GI50 (UO-31 renal) was 10.7 µM and the TGI (UO-31 renal) was 28.7 µM.
